Measured values from US10526316B2, “Quinoxaline and pyridopyrazine derivatives as PI3Kβ inhibitors” (Janssen Pharmaceutica NV, priority 2015, dated 2020).
Read-outs that look alike come from different tables or passages of the source.

Legend:
[1] = tested on: Akt phosphorylated at Thr308 in PC-3 cells; assay: Cellular assay: phosphorylation of Akt at Thr308 in PC-3 cells (MSD ELISA); format: cell-based; settings: PC-3 cells, 60 min compound incubation, MSD ELISA, read-out: IC50 pAkt_Thr308
Method in brief: (§1)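 Compound treatment of PC-3 cells lasted 60 min at 37° C (0.3% DMSO). Lysates were then applied to plates carrying capture antibodies for the relevant phospho-site, and bound Akt was detected with an electrochemiluminescent anti-total Akt antibody; IC50s derive from five-point curves.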

[2] = target: T1, kinase enzymes (Homo sapiens, UniProt P42345); assay: Enzyme binding assay (KINOMEscan, DiscoveRx), further kinases of Table A; settings: MTOR_h
T1 construct: purchased DiscoveRx Corporation, San Diego (contract service, KINOMEscan)
Method in brief: (§2)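 Affinity for each kinase was determined by KINOMEscan profiling.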

[3] = target: T2, kinase enzymes (Homo sapiens, UniProt P48736); assay: as above; settings: PIK3Cγ_h
T2 construct: purchased DiscoveRx Corporation, San Diego (contract service, KINOMEscan)
Method in brief: as §2

[4] = target: T3, kinase enzymes (Homo sapiens, UniProt P42336); assay: as above; settings: PIK3Cα_h
T3 construct: purchased DiscoveRx Corporation, San Diego (contract service, KINOMEscan)
Method in brief: as §2

[5] = tested on: Akt phosphorylated at Ser473 in PC-3 cells; assay: Cellular assay: phosphorylation of Akt at Ser473 in PC-3 cells (MSD ELISA); format: cell-based; settings: PC-3 cells, 60 min compound incubation, MSD ELISA, read-out: IC50 pAkt_S473
Method in brief: as §1

[6] = target: T4, PI3Kβ (Homo sapiens, UniProt P42338); assay: Enzyme binding assay (KINOMEscan, DiscoveRx); settings: PIK3Cβ_h, read-out: Kd PIK3Cβ_h
T4 construct: purchased DiscoveRx Corporation, San Diego (contract service, KINOMEscan)
Method in brief: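 Values are Kd in nM, the binding constant of each inhibitor for the kinase, obtained from a KINOMEscan enzyme binding assay.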

[7] = target: T5, PI3Kδ (Homo sapiens, UniProt O00329); assay: Enzyme binding assay (KINOMEscan, DiscoveRx); settings: PIK3Cδ_h
T5 construct: purchased DiscoveRx Corporation, San Diego (contract service, KINOMEscan)
T5 sequence (O00329 1-1044): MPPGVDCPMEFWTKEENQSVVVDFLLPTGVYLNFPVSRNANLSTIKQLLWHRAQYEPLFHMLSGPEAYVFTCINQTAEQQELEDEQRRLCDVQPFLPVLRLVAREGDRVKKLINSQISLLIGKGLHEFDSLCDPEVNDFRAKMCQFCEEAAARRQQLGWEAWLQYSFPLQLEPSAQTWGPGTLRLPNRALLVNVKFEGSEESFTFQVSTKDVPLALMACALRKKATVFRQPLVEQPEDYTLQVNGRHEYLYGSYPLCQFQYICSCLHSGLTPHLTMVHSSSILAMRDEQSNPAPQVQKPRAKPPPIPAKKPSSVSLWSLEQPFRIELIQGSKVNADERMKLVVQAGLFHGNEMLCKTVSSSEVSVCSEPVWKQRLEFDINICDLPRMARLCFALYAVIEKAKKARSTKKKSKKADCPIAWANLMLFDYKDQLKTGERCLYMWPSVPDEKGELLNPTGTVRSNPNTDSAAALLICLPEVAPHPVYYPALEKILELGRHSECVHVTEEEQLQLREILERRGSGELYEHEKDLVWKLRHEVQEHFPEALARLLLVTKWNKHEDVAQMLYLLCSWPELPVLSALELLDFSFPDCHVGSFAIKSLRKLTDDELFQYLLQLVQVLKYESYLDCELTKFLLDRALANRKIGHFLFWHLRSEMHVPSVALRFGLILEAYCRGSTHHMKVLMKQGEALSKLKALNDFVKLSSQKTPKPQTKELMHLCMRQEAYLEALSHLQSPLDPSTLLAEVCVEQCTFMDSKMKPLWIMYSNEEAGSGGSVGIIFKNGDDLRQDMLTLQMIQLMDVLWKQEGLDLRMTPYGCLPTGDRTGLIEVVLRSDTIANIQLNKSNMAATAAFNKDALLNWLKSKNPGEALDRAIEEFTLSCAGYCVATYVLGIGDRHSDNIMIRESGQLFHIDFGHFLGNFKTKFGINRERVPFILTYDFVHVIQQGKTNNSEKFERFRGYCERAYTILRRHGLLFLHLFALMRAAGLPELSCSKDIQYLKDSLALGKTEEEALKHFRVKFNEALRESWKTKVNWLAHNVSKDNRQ
Method in brief: as §2

T4 sequence (P42338 whole entry): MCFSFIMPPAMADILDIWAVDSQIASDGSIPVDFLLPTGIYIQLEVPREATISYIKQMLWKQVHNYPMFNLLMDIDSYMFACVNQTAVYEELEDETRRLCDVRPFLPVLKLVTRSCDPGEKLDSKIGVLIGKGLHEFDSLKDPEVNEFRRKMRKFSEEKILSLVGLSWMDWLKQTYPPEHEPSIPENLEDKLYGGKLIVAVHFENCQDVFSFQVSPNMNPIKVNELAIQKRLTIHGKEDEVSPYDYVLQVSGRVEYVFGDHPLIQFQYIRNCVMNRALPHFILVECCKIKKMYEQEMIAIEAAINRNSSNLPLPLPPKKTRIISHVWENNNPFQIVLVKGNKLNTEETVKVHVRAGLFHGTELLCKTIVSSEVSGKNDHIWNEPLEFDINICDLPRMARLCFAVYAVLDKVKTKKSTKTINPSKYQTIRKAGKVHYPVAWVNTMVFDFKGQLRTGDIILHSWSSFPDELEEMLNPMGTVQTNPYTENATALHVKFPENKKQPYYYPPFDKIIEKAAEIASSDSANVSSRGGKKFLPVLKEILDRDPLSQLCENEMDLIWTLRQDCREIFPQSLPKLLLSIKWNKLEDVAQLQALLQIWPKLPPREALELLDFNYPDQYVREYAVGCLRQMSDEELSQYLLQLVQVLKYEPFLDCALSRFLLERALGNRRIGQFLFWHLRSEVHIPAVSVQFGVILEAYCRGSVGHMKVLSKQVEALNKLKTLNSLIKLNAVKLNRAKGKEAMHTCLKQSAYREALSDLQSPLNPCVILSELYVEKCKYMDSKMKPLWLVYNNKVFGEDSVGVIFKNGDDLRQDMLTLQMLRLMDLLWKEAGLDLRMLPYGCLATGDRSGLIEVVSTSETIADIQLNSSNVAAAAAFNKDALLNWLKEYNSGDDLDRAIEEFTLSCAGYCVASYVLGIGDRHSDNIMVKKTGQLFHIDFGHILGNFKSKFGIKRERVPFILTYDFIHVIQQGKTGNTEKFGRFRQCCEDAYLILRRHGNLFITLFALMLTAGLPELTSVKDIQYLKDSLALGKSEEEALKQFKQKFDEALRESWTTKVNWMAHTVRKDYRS
T2 sequence (P48736 whole entry): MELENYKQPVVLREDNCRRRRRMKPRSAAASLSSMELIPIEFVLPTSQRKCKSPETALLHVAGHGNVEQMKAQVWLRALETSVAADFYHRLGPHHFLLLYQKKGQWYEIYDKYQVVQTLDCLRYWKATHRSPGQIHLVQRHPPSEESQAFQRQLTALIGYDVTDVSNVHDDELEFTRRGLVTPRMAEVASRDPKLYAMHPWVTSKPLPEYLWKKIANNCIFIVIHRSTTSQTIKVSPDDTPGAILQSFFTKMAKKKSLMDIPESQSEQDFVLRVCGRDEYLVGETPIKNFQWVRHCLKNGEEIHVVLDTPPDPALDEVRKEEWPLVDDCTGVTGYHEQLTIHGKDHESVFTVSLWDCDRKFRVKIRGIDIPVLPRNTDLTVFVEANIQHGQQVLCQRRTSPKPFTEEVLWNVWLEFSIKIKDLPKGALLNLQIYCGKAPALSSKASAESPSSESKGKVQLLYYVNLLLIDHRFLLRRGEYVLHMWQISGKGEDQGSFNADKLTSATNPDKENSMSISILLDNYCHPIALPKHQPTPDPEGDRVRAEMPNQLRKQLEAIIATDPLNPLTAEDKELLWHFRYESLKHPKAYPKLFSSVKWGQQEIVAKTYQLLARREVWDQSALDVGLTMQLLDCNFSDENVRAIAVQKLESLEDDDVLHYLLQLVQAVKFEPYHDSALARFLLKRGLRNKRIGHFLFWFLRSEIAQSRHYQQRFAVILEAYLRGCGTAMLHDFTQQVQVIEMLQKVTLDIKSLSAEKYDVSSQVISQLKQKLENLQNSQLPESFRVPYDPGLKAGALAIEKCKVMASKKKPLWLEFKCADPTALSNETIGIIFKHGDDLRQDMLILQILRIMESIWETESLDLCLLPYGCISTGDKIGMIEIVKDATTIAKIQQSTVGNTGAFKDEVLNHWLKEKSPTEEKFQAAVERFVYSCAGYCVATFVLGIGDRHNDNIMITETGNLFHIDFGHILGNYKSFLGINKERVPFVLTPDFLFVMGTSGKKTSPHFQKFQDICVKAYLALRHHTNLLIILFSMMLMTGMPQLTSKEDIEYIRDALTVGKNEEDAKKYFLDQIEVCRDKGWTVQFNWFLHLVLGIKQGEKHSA
T3 sequence (P42336 whole entry): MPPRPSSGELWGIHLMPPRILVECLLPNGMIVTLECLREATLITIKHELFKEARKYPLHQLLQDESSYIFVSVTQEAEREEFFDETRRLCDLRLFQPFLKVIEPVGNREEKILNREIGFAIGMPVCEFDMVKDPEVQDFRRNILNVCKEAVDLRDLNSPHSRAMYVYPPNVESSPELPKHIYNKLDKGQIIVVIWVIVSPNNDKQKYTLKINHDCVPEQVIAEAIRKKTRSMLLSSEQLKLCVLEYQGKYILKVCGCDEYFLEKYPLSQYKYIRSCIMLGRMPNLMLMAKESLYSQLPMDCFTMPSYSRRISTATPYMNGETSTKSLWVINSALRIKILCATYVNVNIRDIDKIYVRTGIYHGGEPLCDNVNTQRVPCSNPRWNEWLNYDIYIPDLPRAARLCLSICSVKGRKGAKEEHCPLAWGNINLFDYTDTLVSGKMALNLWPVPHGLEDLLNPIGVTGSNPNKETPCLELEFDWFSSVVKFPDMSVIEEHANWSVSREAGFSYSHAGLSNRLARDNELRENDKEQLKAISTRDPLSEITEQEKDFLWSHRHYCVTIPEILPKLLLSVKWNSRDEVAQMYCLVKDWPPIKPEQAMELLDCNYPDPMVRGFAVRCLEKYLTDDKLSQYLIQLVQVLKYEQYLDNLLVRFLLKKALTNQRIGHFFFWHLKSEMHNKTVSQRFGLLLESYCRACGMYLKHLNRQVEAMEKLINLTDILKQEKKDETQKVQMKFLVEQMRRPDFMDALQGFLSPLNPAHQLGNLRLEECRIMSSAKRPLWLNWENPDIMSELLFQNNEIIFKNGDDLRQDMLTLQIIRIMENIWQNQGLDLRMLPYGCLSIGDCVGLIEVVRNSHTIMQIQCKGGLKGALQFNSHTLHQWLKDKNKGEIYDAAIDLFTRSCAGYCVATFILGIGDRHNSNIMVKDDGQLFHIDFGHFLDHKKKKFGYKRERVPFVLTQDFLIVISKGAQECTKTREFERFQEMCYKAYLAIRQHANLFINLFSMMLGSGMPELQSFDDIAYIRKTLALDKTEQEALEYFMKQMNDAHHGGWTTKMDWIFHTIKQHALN

| Structure (SMILES) | IC50 [1] [nM] | Kd [2] [µM] | Kd [3] [µM] | Kd [4] [nM] | IC50 [5] [nM] | Kd [6] [nM] | Kd [7] [nM] | IC50 ([1]; Homo sapiens, PC-3, 1 h) [nM] | IC50 ([5]; Homo sapiens, PC-3, 1 h) [nM] |
| --- | --- | --- | --- | --- | --- | --- | --- | --- | --- |
| CC(C)NCCNC(=O)c1cc(C(C)Nc2ccc(F)c(F)c2)c2nc(N3CCOCC3)cnc2c1 (single isomer, unassigned) [Compound 364a] | 26 | > 30.2 | 6.92 | 2460 | 35 | 1 | 204 | – | – |
| CC(C)NCCNC(=O)c1cc(C(C)Nc2ccc(F)c(F)c2)c2nc(N3CCOCC3)cnc2c1 (single isomer, unassigned) [Compound 364b] | > 513 | > 30.2 | 8.13 | 7080 | > 513 | 372 | 7760 | – | – |
| CN[C@H]1CCN(C(=O)c2cc(C(C)Nc3ccc(F)c(F)c3)c3nc(N4CCOCC4)cnc3c2)C1 (single isomer, unassigned) [Compound 365a] | – | > 30.2 | 10.2 | 5250 | – | 1 | 204 | 35 | 52 |
| Cc1c(F)cccc1CN(C)c1cc(C(=O)N2CCNC(C(F)(F)F)C2)cc2ncc(N3CCOCC3)nc12 (single isomer, unassigned) [Compound 367a] | – | 29.5 | 23.4 | 4070 | – | 63 | 1150 | > 513 | > 513 |
| Cc1c(F)cccc1CN(C)c1cc(C(=O)N2CCNC(C(F)(F)F)C2)cc2ncc(N3CCOCC3)nc12 (single isomer, unassigned) [Compound 367b] | > 513 | 28.2 | > 30.2 | 2460 | > 513 | 35 | 427 | – | – |
| CC(Oc1ccc(F)c(F)c1)c1cc(C(=O)N2CCN3CCC[C@H]3C2)cc2ncc(N3CCOCC3)nc12 (single isomer, unassigned) [Compound 369a] | 251 | 25.1 | > 30.2 | 7240 | – | 20 | 525 | – | ~363 |
| CNCCNC(=O)c1cc(C(C)Oc2ccc(Cl)c(F)c2)c2nc(N3CCOCC3)cnc2c1 (single isomer, unassigned) [Compound 380b] | – | 18.6 | 8.91 | 3800 | – | 5 | 1200 | > 513 | > 513 |
| CC(Nc1cc(F)c(F)c(F)c1)c1cc(C(=O)N2CCCN(C(C)C)CC2)cc2ncc(N3CCOCC3)nc12 (single isomer, unassigned) [Compound 388b] | – | > 30.2 | 2.4 | 2190 | – | 3 | 200 | 19 | 38 |
| CN(C)C(=O)c1cc(N2CCC2c2ccc(F)cc2)c2nc(N3CCOCC3)cnc2c1 (single isomer, unassigned) [Compound 397b] | > 513 | > 30.2 | 12.3 | 1860 | ~513 | 25 | 871 | – | – |
| CC(Oc1cc(F)c(F)c(F)c1)c1cc(C(=O)N(C)C2CCNC2)cc2ncc(N3CCOCC3)nc12 (single isomer, unassigned) [Compound 404a] | – | > 30.2 | > 30.2 | > 30200 | – | 1510 | > 30200 | > 513 | > 513 |
| CC(Oc1cc(F)c(F)c(F)c1)c1cc(C(=O)N(C)C2CCNC2)cc2ncc(N3CCOCC3)nc12 (single isomer, unassigned) [Compound 404b] | 295 | > 30.2 | 16.6 | 5250 | 398 | 1 | 1070 | – | – |
| CN[C@H]1CCN(C(=O)c2cc(C(C)Oc3cc(F)c(F)c(F)c3)c3nc(N4CCOCC4)cnc3c2)C1 (single isomer, unassigned) [Compound 405a] | > 513 | > 30.2 | > 30.2 | > 30200 | > 513 | 501 | 7410 | – | – |
| CN[C@H]1CCN(C(=O)c2cc(C(C)Oc3cc(F)c(F)c(F)c3)c3nc(N4CCOCC4)cnc3c2)C1 (single isomer, unassigned) [Compound 405b] | 33 | 20.9 | 4.68 | 5010 | 44 | 1 | 219 | – | – |
| CNCCNC(=O)c1cc(C(C)Nc2cc(F)cc(F)c2)c2nc(N3CCOCC3)cnc2c1 (single isomer, unassigned) [Compound 406b] | > 513 | > 30.2 | 3.8 | 7410 | > 513 | 141 | 3470 | – | – |
| CN(C)C(=O)c1cc([C@H]2CCCN2c2cc(F)cc(F)c2)c2nc(N3CCOCC3)cnc2c1 [Compound 1] | 3 | 28.2 | 0.313 | 34 | 2 | 0.3 | 15 | – | – |
| C[C@@H]1CN(c2cnc3cc(C(=O)N(C)C)cc(C4CCCN4c4cc(F)cc(F)c4)c3n2)CCO1 (stereo partly drawn) [Compound 3] | ~3 | 17.8 | 0.229 | 47 | 3 | 1 | 20 | – | – |
| C[C@@H]1CN(c2cnc3cc(C(=O)N(C)C)cc(C4CCCN4c4cc(F)cc(F)c4)c3n2)CCO1 (stereo partly drawn) [Compound 4] | – | > 30.2 | > 30.2 | 23400 | – | 1700 | 22900 | > 513 | > 513 |
| CC(Nc1cc(F)cc(F)c1)c1cc(C(=O)N2CCOCC2)cc2ncc(N3CCOCC3)nc12 (stereo not drawn) [Compound 7] | 21 | > 30.2 | 10 | 513 | 42 | 2 | 245 | – | – |
| Fc1cc(F)cc(N2CCCC2c2cncc3ncc(N4CCOCC4)nc23)c1 (stereo not drawn) [Compound 23] | – | 15.1 | 0.724 | 324 | – | 1 | 331 | 42 | ~68 |
| CC1CN(c2cnc3cc(C(=O)N(C)C)cc(C4CCCN4c4cc(F)cc(F)c4)c3n2)CCO1 (stereo not drawn) [Compound 36] | – | 15.8 | 1.59 | 224 | – | 2 | 107 | 5 | 10 |
| CC(Oc1cc(F)cc(F)c1)c1cc(C(=O)N(C)C)cc2ncc(N3CCOCC3)nc12 (stereo not drawn) [Compound 53] | – | > 30.2 | 21.4 | 2950 | – | 3 | 692 | 148 | 214 |
| CC(Oc1cc(F)ccc1NCCN)c1cc(C(=O)N(C)C)cc2ncc(N3CCOCC3)nc12 (stereo not drawn) [Compound 79] | – | > 30.2 | 20 | 2290 | – | 2 | 204 | 123 | 158 |
| CC(Nc1cccc(F)c1)c1cc(C(=O)N(C)C)cc2ncc(N3CCOCC3)nc12 (stereo not drawn) [Compound 85] | – | 0.562 | 1.66 | 257 | – | 0.3 | 41 | 78 | 48 |
| CCN1CCN(C(=O)c2cc(C(C)Oc3cccc(F)c3)c3nc(N4CCOCC4)cnc3c2)CC1 (stereo not drawn) [Compound 90] | – | > 30.2 | 22.9 | 9120 | – | 17 | 741 | > 513 | > 513 |
